Measured values taken from US20210106742A1, “NON-HEMOLYTIC COMPOSITIONS AND METHODS OF USE FOR RECOVERING DISEASE CAUSING TOXIC CONSTITUENTS IN THE BLOOD” (ACTORIUS INNOVATIONS AND RESEARCH CO, priority 2019, published 2021).
Read-outs that look alike come from different tables or passages of the source.

Key:
[1] = system: Red Blood Cells from whole human blood; assay: Red Blood Cells hemolysis assay
Protocol: Red Blood Cells from whole human blood were separated by centrifugation at room temperature and washed in sodium chloride solution two times and resuspended in phosphate buffer saline with pH 7.4. The resuspended red blood cells were incubated with the composition to be evaluated for 30 minutes at 37° C. The samples were centrifuged and the supernatant collected and analyzed for hemolysis using UV spectroscopy. The percentage of hemolysis was estimated against a negative control phosphate buffer saline with pH 7.4 and positive control 0.5% Triton-X100 prepared in phosphate-buffered saline with pH 7.4.
Red Blood Cells from whole human blood (5 milliliter) were separated by centrifugation (500×g, 5 minutes) at room temperature and washed in 150 mM sodium chloride (NaCl) solution two times and resuspended in a total final volume of 5 milliliter with phosphate buffered saline with pH 7.4. The resuspended red blood cells were incubated by mixing with materials listed in Table 1 for 30 minutes at 37° C. The samples were centrifuged (500×g, 5 minutes, room temperature), and supernatants were collected and analyzed for hemolysis using UV spectroscopy at spectra 540 nm. The percentage hemolysis was estimated against a negative control phosphate buffered saline with pH 7.4 and positive control 0.5% Triton-X100.

[2] = system: circulating tumor cells (CTC); assay: Destruction of circulating tumor cells using cisplatin; type: cell-based, human; conditions: CTCs isolated with composition of example 33; 30 micrograms Cisplatin in 100 microliter PBS pH 7.4, two hours
Protocol: (§1) 1.5 ml blood of a cancer patient was incubated with 300 micrograms of composition of example 33 for 5 minutes. CTCs were isolated using magnetic separation and cells were fixed with absolute ethanol and immuno-stained with cytokeratin (CK-18), leucocyte common antigen (CD-45) and with nuclear-staining probe 4′,6-diamidino-2-phenylindole (DAPI). Captured cells were imaged under fluorescence microscope, wherein 3 CTCs were isolated.
as §1, with “incubated for two hours with 30 micrograms Cisplatin in 100 microliter phosphate buffered saline, pH 7.4, and the composition was” for “cells were”, “(DAPI) and” for “(DAPI). Captured cells were”, “microscope.” for “microscope, wherein 3 CTCs were isolated.”

With `CCO[Si](CCCN)(OCC)OCC` [(3-Aminopropyl)triethoxysilane] the “Percentage Hemolysis” value ([1]; sample amount 0.5%, 30 minutes at 37° C.) was 0% and the “Percentage Hemolysis” value ([1]; sample amount 10%, 30 minutes at 37° C.) was 36%.

`N.N.[Cl][Pt][Cl]` [Cisplatin] was tested, and the “CTCs observed after incubation with the drug” value [2] was “No CTCs were observed”.

With Triton-X100 the “Percentage Hemolysis” value [1] was 100%.
